# Earlier results as cited in patent US20100047365A1, “WHEAT-GERM OIL CONCENTRATE, A METHOD FOR THE PRODUCTION THEREOF, A METHOD FOR PRODUCING WHEAT-GERM OIL, AND A MEDICINAL AND PROPHYLACTIC COMPOSITION BASED THEREON FOR RESTORATION OF DISORDERS IN SEXUAL FUNCTIONS” (OTKRYTOE AKTSIONERNOE, priority 2006, published 2010).
# Conditions: relative ranking of tocopherol forms
row,Compound,antioxidant activity
1,Cc1c(C)c2c(c(C)c1O)CC[C@@](C)(CCC[C@H](C)CCC[C@H](C)CCCC(C)C)O2 [α-tocopherol],0.3
2,Cc1cc(O)c(C)c2c1O[C@](C)(CCC[C@H](C)CCC[C@H](C)CCCC(C)C)CC2 [β-tocopherol],0.45
3,Cc1cc(O)cc2c1O[C@](C)(CCC[C@H](C)CCC[C@H](C)CCCC(C)C)CC2 [δ-tocopherol],1.0
4,tocopherol,0.6
